# Reference: patent US9724351B2, “Compounds for the treatment of paramoxyvirus viral infections” (priority 2012, dated 2017)
# Test system: Respiratory Syncytial Virus (RSV) long strain (ATCC#VR-26)
# Assay: RSV Antiviral Assay (CPE reduction assay)
# Type: cell-based
# Details: human respiratory syncytial virus, 120 h; HEp-2 cells infected with RSV long strain, 5 days, CCK-8 readout; bins (Table 2: less than 1 μM; Table 3: equal to or higher than 1 μM and less than 50 μM); read-out: 50% effective concentration (EC50)
# Experimental: CPE reduction assays are performed as described by Sidwell and Huffman et al., Appl. Microbiol. (1971) 22(5):797-801 with slight modifications. HEp-2 cells (ATCC#, CCL-23) are seeded at a density of 1,500 cells/30 μl/well into the 384-well cell plate(s) (Corning#3701) one day prior to the assay. Compounds are added into 384-well cell plates by Labcyte POD 810 Plate Assembler system. Each of the test compounds is provided to duplicate wells of a 384-well cell plate at final concentrations starting from 100 μM or 1 μM using ⅓ stepwise dilutions for 9 points. Quick-thaw Respiratory Syncytial Virus (RSV) long strain (ATCC#VR-26) stock in a 37° C. water bath. Place on ice until ready to use. Viruses are diluted to the concentration of 100 TCID50/30 μl with medium and 30 μl diluted RSV are added into related wells of 384-well cell plates. For each plate, sixteen wells are set aside as uninfected, untreated cell controls (CC), and nine wells per test plate receive virus only as a control for virus replication (VC). The final DMSO concentration of all wells is 1%. Place the plates at 37° C., 5% CO2 for 5 days.
# After 5 days incubation, observe the CPE of cells in all wells. […] Six μl of cell counting kit-8 reagent (CCK-8, Dojindo Molecular Technologies Inc., CK04-20) are added to each well, which allows colorimetric assays to determine the number of viable cells through the dehydrogenase activity detection. After 3-4 hour incubation, the absorbance of each well is measured with a spectrophotometric plate reader at 450 nm wavelength, using a 630 nm filter as background according to manufacturer's instruction. The 50% effective concentration (EC50) is calculated by using regression analysis, based on the mean O.D. at each concentration of compound.
row,SMILES,EC50 [µM]
1,COc1ccc(C(=O)NCC(=O)c2ccc(OC)c(-c3ccccc3-c3ccccc3)n2)cc1OC [Compound 1523],1 to 50
2,COc1ccc(C(=O)NCC(=O)c2ccc(OC)c(-c3cncc4ccccc34)n2)cc1OC [Compound 1512],1 to 50
3,COc1cc(C(=O)NCC(=O)c2ccc(OC)c(-c3ccc(F)c(Cl)c3)n2)ccc1-c1cccnc1 [Compound 2504],1 to 50

# Test system: not listed separately
# Assay: Cytotoxicity Determination
# Type: cell-based
# Details: human, HEp-2 cells, without addition of virus, CCK-8 readout, bins (Table 4: greater than 100 μM; Table 5: equal to or less than 100 μM and greater than 10 μM), read-out: 50% cytotoxicity concentration (CC50)
# Experimental: In order to determine the compound cytotoxicity, in parallel, each of the compounds is applied to duplicate wells in a 384-well cell plate at serial final concentrations starting from 100 μM using ½ stepwise dilutions for 7 points without addition of virus. Incubate the cells at 37° C., 5% CO2 for 5 days. Add 6 μl CCK-8 into each well and incubate in a CO2 incubator at 37° C. for 3-4 hours. Read the plates to obtain the optical densities which are used to calculate 50% cytotoxicity concentration (CC50).
row,SMILES,CC50 at 5 days [µM]
1,COc1ccc(CNCC(=O)N/N=C/c2csc3ccccc23)cc1OC [Compound 241],10 to 100
2,COc1ccc(C(=O)NCC(=O)N/N=C(\C)c2csc3ccc(Br)cc23)cc1OC [Compound 432],10 to 100
3,CCOc1ccc(C(=O)NCC(=O)Nc2nc3cc(C(=O)OC)ccc3n2CCOC)cc1OC [Compound 912],10 to 100
4,COc1ccc(C(=O)NCC(=O)c2coc(-c3csc4c(F)cccc34)n2)cc1OC [Compound 3200],> 100
5,CCOc1ccc(C(=O)NCC(=O)Nc2cc3ccccc3n2C)cc1OC [Compound 909],> 100
6,COc1ccc(C(=O)NCCc2nccc(-c3csc4c(F)cccc34)n2)cc1OC [Compound 1208],> 100
7,COc1ccc(C(=O)NCC(=O)N/N=C(\C)c2nc3ccccc3s2)cc1OC [Compound 417],10 to 100
8,COc1ccc(C(=O)NCc2nnc(-c3csc4ccccc34)o2)cc1OC [Compound 4103],> 100
9,COc1ccc(C(=O)NCC(=O)N/N=C(\C)c2csc3c2CCCC3)cc1OC [Compound 428],> 100
10,CCOc1ccc(C(=O)NCC(=O)NCCc2csc3c(F)cccc23)cc1OC [Compound 908],> 100
11,COc1ccc(C(=O)NCC(=O)c2cnc(-c3csc4c(F)cccc34)n2C)cc1OC [Compound 2205],> 100
12,COc1ccc(C(=O)NCC(=O)NN=C2Cc3ccccc3C2)cc1OC [Compound 420],> 100
13,COc1cc(C(=O)CNC(=O)c2ccc(OC)c(OC)c2)nc(-c2csc3c(F)cccc23)n1 [Compound 1201],> 100
14,COc1ccc(C(=O)NCC(=O)Nc2nccc3ccccc23)cc1OC [Compound 906],> 100
15,CCOc1ccc(C(=O)NCC(=O)Nc2nc3cc(C)ccc3n2CCOC)cc1OC [Compound 916],> 100
16,COc1ccc(C(=O)NCC(=O)N/N=C2\CCc3cc(OC)c(OC)cc32)cc1OC [Compound 421],> 100
17,COc1cc(C(=O)NCC(=O)N/N=C(\C)c2csc3ccccc23)ccn1 [Compound 473],> 100
18,COc1ccc(C(=O)NC(C)C(=O)c2nc(-c3csc4c(F)cccc34)ccc2O)cc1OC (centres unmarked) [Compound 1304],10 to 100
19,CCOc1ccc(C(=O)NCC(=O)NCC(=O)c2csc3c(F)cccc23)cc1OC [Compound 910],10 to 100
20,CCOc1ccc(C(=O)NCCNC(=O)N(CCOC)c2csc3c(F)cccc23)cc1OC [Compound 1000],> 100
21,COc1ccc(C(=O)NCC(=O)N/N=C/c2csc3ccccc23)cc1 [Compound 101],> 100

row,SMILES,CC50 at 5 days [µM]
1,COc1ccc(C(=O)CCC(=O)c2cccc(-c3csc4c(F)cccc34)n2)cc1OC [Compound 1339],10 to 100
2,COc1ccc(C(=O)NCC(=O)NNCCC(=O)c2csc3ccccc23)cc1OC [Compound 904],> 100
3,CN(C)c1ccc(C(=O)NCC(=O)N/N=C/c2csc3ccccc23)cc1 [Compound 237],10 to 100
4,COc1ccc(CC(=O)NCC(=O)N/N=C(/C)c2csc3ccccc23)cc1OC [Compound 472],10 to 100
5,COc1ccc(C(=O)NCC(=O)N/N=C2\CCc3ccccc32)cc1OC [Compound 425],> 100
6,COc1cc(C(=O)NCC(=O)c2cccc(-c3csc4c(F)cccc34)n2)ccc1OCCN1CCOCC1 [Compound 1233],10 to 100
7,COc1ccc(C(=O)NCC(=O)N/N=C(\C)c2c(Br)sc3ccccc23)cc1OC [Compound 437],10 to 100
8,Cc1ccc(/C=N/NC(=O)CNC(=O)c2ccccc2)o1 [Compound 119],10 to 100
9,COc1ccc(C(=O)NN(C)C(=O)c2cccc(-c3csc4c(F)cccc34)n2)cc1OC [Compound 3102],10 to 100
10,CCOc1ccc(C(=O)NCC(=O)Nc2nc3ccc(F)c(F)c3n2CCOC)cc1OC [Compound 915],> 100
11,COc1ccc(S(=O)(=O)NCC(=O)N/N=C(\C)c2csc3ccccc23)cc1OC [Compound 240],10 to 100
12,CCOc1ccc(C(=O)NCC(=O)Nc2nc3cc(F)ccc3n2CCOC)cc1OC [Compound 914],> 100
13,COc1ccc(C(=O)NCC(=O)c2ncc(-c3csc4c(F)cccc34)n2C)cc1OC [Compound 2204],10 to 100
14,COc1ccc(C(=O)NCC(=O)c2nc(-c3csc4c(F)cccc34)co2)cc1OC [Compound 3201],10 to 100
15,COc1ccc(C(=O)NCCc2ccnc(-c3csc4c(F)cccc34)n2)cc1OC [Compound 1207],> 100
16,CCn1cc(-c2csc3c(F)cccc23)nc1C(=O)CNC(=O)c1ccc(OC)c(OC)c1 [Compound 1354],10 to 100
17,COc1ccc(C(=O)NCC(=O)N/N=C(\C)c2cccc3ccccc23)cc1OC [Compound 433],10 to 100
18,COc1ccc(C(=O)NCC(=O)N/N=C/c2csc(-c3ccccc3)c2)cc1OC [Compound 487],10 to 100
19,CC(C)Oc1ccc(C(=O)NCC(=O)N/N=C/c2csc3ccccc23)cc1 [Compound 236],10 to 100
20,COc1ccc(C(=O)NCC(=O)N/N=C(\C)c2cnc3ccccc3c2)cc1OC [Compound 435],> 100
21,COc1cc(C(=O)NCC(=O)c2cccc(-c3csc4c(F)cccc34)n2)ccc1OC1CCNCC1 [Compound 1231],10 to 100

row,SMILES,CC50 at 5 days [µM]
1,COc1ccc(C(=O)Nc2cn(C)c3ccc(-c4csc5c(F)cccc45)nc3c2=O)cc1OC [Compound 2901],> 100
2,CCOc1ccc(C(=O)NCC(=O)Nc2nc3ccccc3n2CCOC)cc1OC [Compound 913],> 100
3,COc1ccc(C(=O)NCC(=O)c2cncc(-c3csc4c(F)cccc34)n2)cc1OC [Compound 1219],> 100
4,CCOc1ccc(C(=O)NCC(=O)N/N=C(\C)c2csc3cccnc23)cc1OC [Compound 465],10 to 100
5,COc1ccc(C(=O)NCC(=O)c2nc(-c3csc4c(F)cccc34)n[nH]2)cc1OC [Compound 860],10 to 100
6,COc1ccc(C(=O)NCC(=O)N/N=C(\C)c2cc(-c3ccccc3)sc2C)cc1OC [Compound 419],10 to 100
7,COc1cc(C(=O)NCC(=O)c2ccc(OC)c(-c3ccc(F)c(Cl)c3)n2)ccc1OCCO [Compound 1603],> 100
8,COc1ccc(C(=O)NCC(=O)Nc2ccc3c(-c4ccccc4)c[nH]c3c2)cc1OC [Compound 4104],> 100
9,COc1ccc(C(=O)NCC(=O)c2cc(=O)cc(-c3csc4c(F)cccc34)[nH]2)cc1OC [Compound 1222],> 100
10,COc1ccc(C(=O)NCC(=O)N/N=C(\C)c2csc(-c3ccccc3)c2)cc1OC [Compound 429],> 100
11,CCOc1ccc(C(=O)NCC(=O)NNC(=O)c2csc3cccnc23)cc1OC [Compound 902],10 to 100
12,COc1ccc(C(=O)NCC(=O)NN=C(c2cccs2)c2cccs2)cc1OC [Compound 431],> 100
13,COc1ccc(C(=O)N(C)CC(=O)N/N=C(\C)c2csc3ccccc23)cc1OC [Compound 242],> 100
14,COc1ccc(C(=O)NCCC(=O)N/N=C(/C)c2csc3ccccc23)cc1OC [Compound 243],> 100
15,COc1cc(C(=O)NCC(=O)c2cccc(-c3csc4c(F)cccc34)n2)ccc1OC1CCN(C)CC1 [Compound 1234],10 to 100
16,COc1ccc(C(=O)NCC(=O)N/N=C(\C)c2c(C)[nH]c3ccccc23)cc1OC [Compound 416],10 to 100
17,COc1ccc(C(=O)NCC(=O)N/N=C/c2cncc3ccccc23)cc1OC [Compound 412],10 to 100
18,COc1ccc(C(=O)NCC(=O)Nc2cc3ccccc3c(=O)[nH]2)cc1OC [Compound 907],> 100
19,COc1ccc(C(=O)NCC(=O)N/C=C/c2csc3ccccc23)cc1OC [Compound 4102],10 to 100
20,COc1ccc2c(c1)/C(=N/NC(=O)CNC(=O)c1ccc(OC)c(OC)c1)CC2 [Compound 424],> 100
